Tests used:
PC3 cells = assay: MTT cytotoxicity assay in PC3 cells; type: cell-based, Human; settings: 72 hours incubation, read-out: IC50 in prostate cancer cells, PC3
Protocol: (§1) Cisplatin and ADIBO-COOH were used as controls. […] Cell Lines and Cell Culture. […] Cytotoxicity Analysis of Platin-CLK by MTT Assay. […] The media was changed and increasing concentrations of each compound was added. […] Final working solutions were prepared in culture media (RPMI) by keeping total DMSO percentage <1%. These were then incubated for 72 hours. […] The IC50 values were reported at ±99% confidence intervals.

DU145 cells = assay: MTT cytotoxicity assay in DU145 cells; type: cell-based, Human; settings: 72 hours incubation, read-out: IC50 in prostate cancer cells, DU145
Protocol: as §1

Row | Compound | IC50 (PC3 cells) [µM] | IC50 (DU145 cells) [µM]
1 | O=C(O)CCC(=O)NCCC(=O)N1Cc2ccccc2C#Cc2ccccc21 [ADIBO-COOH] | > 200 | 284 ± 72
2 | N.N.[Cl][Pt][Cl] [Cisplatin, Cis-diamminedichloroplatinum(II)] | 12 ± 2 | 6 ± 0.9

Source: US20170096443A1, “PLATINUM(IV) COMPOUNDS AND METHODS OF MAKING AND USING SAME” (UNIVERSITY OF GEORGIA RESEARCH FOUNDATION, INC., priority 2014, published 2017)
